Laboratory results from ChEMBL document CHEMBL1201862, “PubChem BioAssay data set” (2004).
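Results reflect a 48-hour exposure of cells in 96-well plates to compound at five concentrations. GI50 = concentration required for 50% inhibition of growth.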 Activity calls are given as the source filed them. Rule as the data show it: active = GI50 up to about 1.1 µM and inactive = higher.

Experiments:
Test in all cases: NCI tumour cell line growth inhibition, 48 h
A549 = test system: A549
CCRF-CEM = test system: CCRF-CEM
CAKI-1 = test system: CAKI-1
MDA-MB-231 = test system: MDA-MB-231
EKVX = test system: EKVX
SNB-75 = test system: SNB-75
SK-MEL-2 = test system: SK-MEL-2
RPMI-8226 = test system: RPMI-8226
OVCAR-3 = test system: OVCAR-3
HOP-62 = test system: HOP-62
Malme-3M = test system: Malme-3M
MCF7 = test system: MCF7
HCT-15 = test system: HCT-15
ACHN = test system: ACHN
OVCAR-4 = test system: OVCAR-4
BT-549 = test system: BT-549
SK-MEL-28 = test system: SK-MEL-28
UACC-257 = test system: UACC-257
UACC-62 = test system: UACC-62
SK-OV-3 = test system: SK-OV-3

NC(=O)SCCC(N)C(=O)O (stereo not given)
GI50 (A549): > 100 µM (inactive)
GI50 (CCRF-CEM): > 100 µM (inactive)
GI50 (CAKI-1): > 100 µM (inactive)
GI50 (MDA-MB-231): > 100 µM (inactive)
GI50 (EKVX): > 100 µM (inactive)
GI50 (SNB-75): > 100 µM (inactive)
GI50 (SK-MEL-2): > 100 µM (inactive)
GI50 (RPMI-8226): > 100 µM (inactive)
GI50 (OVCAR-3): > 100 µM (inactive)
GI50 (HOP-62): > 100 µM (inactive)
GI50 (Malme-3M): > 100 µM (inactive)
GI50 (MCF7): > 100 µM (inactive)
GI50 (HCT-15): > 100 µM
GI50 (ACHN): > 100 µM (inactive)
GI50 (OVCAR-4): > 100 µM (inactive)
GI50 (BT-549): > 100 µM (inactive)
GI50 (SK-MEL-28): > 100 µM (inactive)
GI50 (UACC-257): > 100 µM (inactive)
GI50 (UACC-62): > 100 µM (inactive)
GI50 (SK-OV-3): > 100 µM (inactive)

CC1(C)[C@H]2Cc3cc4nc5ccccn5c4cc3[C@@H]1C2
GI50 (A549): 16.4 µM (inactive)
GI50 (CCRF-CEM): 31.3 µM (inactive)
GI50 (CAKI-1): 14.1 µM (inactive)
GI50 (MDA-MB-231): 13 µM (inactive)
GI50 (EKVX): 15.9 µM (inactive)
GI50 (SNB-75): 13.6 µM (inactive)
GI50 (SK-MEL-2): 15.5 µM (inactive)
GI50 (RPMI-8226): 14.5 µM (inactive)
GI50 (OVCAR-3): 17.5 µM (inactive)
GI50 (HOP-62): 18.7 µM (inactive)
GI50 (Malme-3M): 12.4 µM (inactive)
GI50 (MCF7): 3.37 µM (inactive)
GI50 (HCT-15): 19.2 µM
GI50 (ACHN): 18.7 µM (inactive)
GI50 (OVCAR-4): 12 µM (inactive)
GI50 (BT-549): 24.9 µM (inactive)
GI50 (SK-MEL-28): 16 µM (inactive)
GI50 (UACC-257): 17.6 µM (inactive)
GI50 (UACC-62): 15.6 µM (inactive)
GI50 (SK-OV-3): 17.3 µM (inactive)

COC(=O)C1=C(O)C(C(=O)OC)[C@]2(O)[C@H](C(=O)OC)[C@H]1C[C@@H](c1ccc(F)cc1)[C@H]2C(=O)OC (stereo not given in full)
GI50 (A549): 19.3 µM (inactive)
GI50 (CCRF-CEM): 6.85 µM (inactive)
GI50 (CAKI-1): 19.1 µM (inactive)
GI50 (MDA-MB-231): 30.1 µM (inactive)
GI50 (EKVX): 17.3 µM (inactive)
GI50 (SNB-75): 18.1 µM (inactive)
GI50 (SK-MEL-2): 4.35 µM (inactive)
GI50 (RPMI-8226): 16.2 µM (inactive)
GI50 (OVCAR-3): 11.1 µM (inactive)
GI50 (HOP-62): 22.6 µM (inactive)
GI50 (Malme-3M): 12.9 µM (inactive)
GI50 (MCF7): 5.35 µM (inactive)
GI50 (HCT-15): 12.3 µM
GI50 (ACHN): 15.5 µM (inactive)
GI50 (OVCAR-4): 22.4 µM (inactive)
GI50 (BT-549): 21.4 µM (inactive)
GI50 (SK-MEL-28): 14.2 µM (inactive)
GI50 (UACC-257): 11.9 µM (inactive)
GI50 (UACC-62): 13.5 µM (inactive)
GI50 (SK-OV-3): 22.6 µM (inactive)

COC(=O)NC1C(C)OC(OC2C/C=C(/C)C3C=CC4C(OC5CC(OC6CC(O)C(OC7CC(O)C(OC)C(C)O7)C(C)O6)C(O)C(C)O5)C(C)CC(C)C4C3(C)C(=O)C3=C(O)C4(CC(C)C(CO)=CC4/C=C\2C)OC3=O)CC1(C)[N+](=O)[O-] (stereo not given)
GI50 (A549): 22.6 µM (inactive)
GI50 (CCRF-CEM): 2.79 µM (inactive)
GI50 (CAKI-1): 19.4 µM (inactive)
GI50 (MDA-MB-231): 12.6 µM (inactive)
GI50 (EKVX): 5.26 µM (inactive)
GI50 (SNB-75): 19.7 µM (inactive)
GI50 (SK-MEL-2): 11.4 µM (inactive)
GI50 (RPMI-8226): 3.13 µM (inactive)
GI50 (OVCAR-3): 6.84 µM (inactive)
GI50 (HOP-62): 15.4 µM (inactive)
GI50 (Malme-3M): 7.93 µM (inactive)
GI50 (MCF7): 2.71 µM (inactive)
GI50 (HCT-15): 18 µM
GI50 (ACHN): 12.6 µM (inactive)
GI50 (OVCAR-4): 3.48 µM (inactive)
GI50 (BT-549): 13.5 µM (inactive)
GI50 (SK-MEL-28): 11.2 µM (inactive)
GI50 (UACC-257): 13.9 µM (inactive)
GI50 (UACC-62): 6.37 µM (inactive)
GI50 (SK-OV-3): 12 µM (inactive)

COc1cccc2c1C(=O)c1c(O)c3c(c(O)c1C2=O)CC(O)(C(=O)CO)CC3OC1CC(N2CCOCC2C#N)C(O)C(C)O1 (stereo not given)
GI50 (A549): < 0.0001 µM (active)
GI50 (CCRF-CEM): < 0.0001 µM (active)
GI50 (CAKI-1): < 0.0001 µM (active)
GI50 (MDA-MB-231): < 0.0001 µM (active)
GI50 (EKVX): < 0.0001 µM (active)
GI50 (SNB-75): > 0.01 µM (active)
GI50 (SK-MEL-2): < 0.0001 µM (active)
GI50 (RPMI-8226): < 0.0001 µM (active)
GI50 (OVCAR-3): < 0.0001 µM (active)
GI50 (HOP-62): < 0.0001 µM (active)
GI50 (Malme-3M): < 0.0001 µM (active)
GI50 (MCF7): < 0.0001 µM (active)
GI50 (HCT-15): < 0.0001 µM
GI50 (ACHN): < 0.0001 µM (active)
GI50 (OVCAR-4): > 0.01 µM (active)
GI50 (BT-549): < 0.0001 µM (active)
GI50 (SK-MEL-28): < 0.0001 µM (active)
GI50 (UACC-257): < 0.0001 µM (active)
GI50 (UACC-62): < 0.0001 µM (active)
GI50 (SK-OV-3): > 0.01 µM (active)

COCC12CCC(OC)C34C5CC6(O)C(OC)C=C(C5C6OC(=O)c5ccccc5)C(C(OC)C13)C4N(C)C2 (stereo not given)
GI50 (A549): > 100 µM (inactive)
GI50 (CCRF-CEM): > 100 µM (inactive)
GI50 (CAKI-1): > 100 µM (inactive)
GI50 (MDA-MB-231): > 100 µM (inactive)
GI50 (EKVX): > 100 µM (inactive)
GI50 (SNB-75): 32.1 µM (inactive)
GI50 (SK-MEL-2): > 100 µM (inactive)
GI50 (RPMI-8226): > 100 µM (inactive)
GI50 (OVCAR-3): > 100 µM (inactive)
GI50 (HOP-62): > 100 µM (inactive)
GI50 (Malme-3M): > 100 µM (inactive)
GI50 (MCF7): > 100 µM (inactive)
GI50 (HCT-15): > 100 µM
GI50 (ACHN): > 100 µM (inactive)
GI50 (OVCAR-4): > 100 µM (inactive)
GI50 (BT-549): > 100 µM (inactive)
GI50 (SK-MEL-28): > 100 µM (inactive)
GI50 (UACC-257): > 100 µM (inactive)
GI50 (UACC-62): > 100 µM (inactive)
GI50 (SK-OV-3): > 100 µM (inactive)
